Results published in the supplement of paper PMC10307832.

Key:
Assay in all cases: relative viability (nuclei count vs DMSO), 5 days (fraction); higher = more cells survive
Ruxolitinib + Alpelisib = compound: N#CC[C@H](C1CCCC1)n1cc(-c2ncnc3[nH]ccc23)cn1 [Ruxolitinib] + Cc1nc(NC(=O)N2CCC[C@H]2C(N)=O)sc1-c1ccnc(C(C)(C)C(F)(F)F)c1 [Alpelisib] (partner 2 µM)
Method in brief: (§1)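 Lung cancer cell lines were pin-tool dosed in 1536-well plates on the day after seeding, with either a lone drug or a fixed anchor-drug dose plus five library-drug doses (not always all listed) in √10 steps. Nuclei were counted on 4× images after 5 days. Relative viability is the ratio of treated-well to vehicle-well nuclei counts, with each value a median of duplicate plates.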

Ruxolitinib + Tozasertib = compound: N#CC[C@H](C1CCCC1)n1cc(-c2ncnc3[nH]ccc23)cn1 [Ruxolitinib] + Cc1cc(Nc2cc(N3CCN(C)CC3)nc(Sc3ccc(NC(=O)C4CC4)cc3)n2)n[nH]1 [Tozasertib] (partner 0.1 µM)
Method in brief: as §1

Ruxolitinib + Navitoclax = compound: N#CC[C@H](C1CCCC1)n1cc(-c2ncnc3[nH]ccc23)cn1 [Ruxolitinib] + CC1(C)CCC(c2ccc(Cl)cc2)=C(CN2CCN(c3ccc(C(=O)NS(=O)(=O)c4ccc(N[C@H](CCN5CCOCC5)CSc5ccccc5)c(S(=O)(=O)C(F)(F)F)c4)cc3)CC2)C1 [Navitoclax] (partner 0.5 µM)
Method in brief: as §1

VE-821 + Navitoclax = compound: CS(=O)(=O)c1ccc(-c2cnc(N)c(C(=O)Nc3ccccc3)n2)cc1 [VE-821] + CC1(C)CCC(c2ccc(Cl)cc2)=C(CN2CCN(c3ccc(C(=O)NS(=O)(=O)c4ccc(N[C@H](CCN5CCOCC5)CSc5ccccc5)c(S(=O)(=O)C(F)(F)F)c4)cc3)CC2)C1 [Navitoclax] (partner 0.5 µM)
Method in brief: as §1

Row | Cell Line | relative viability (Ruxolitinib + Alpelisib; first compound 0.08 µM) | relative viability (Ruxolitinib + Alpelisib; first compound 0.253 µM) | relative viability (Ruxolitinib + Alpelisib; first compound 0.8 µM) | relative viability (Ruxolitinib + Alpelisib; first compound 2.53 µM) | relative viability (Ruxolitinib + Alpelisib; first compound 8 µM) | relative viability (Ruxolitinib + Tozasertib; first compound 0.08 µM) | relative viability (Ruxolitinib + Tozasertib; first compound 0.253 µM) | relative viability (Ruxolitinib + Tozasertib; first compound 0.8 µM) | relative viability (Ruxolitinib + Tozasertib; first compound 2.53 µM) | relative viability (Ruxolitinib + Tozasertib; first compound 8 µM) | relative viability (Ruxolitinib + Navitoclax; first compound 0.08 µM) | relative viability (Ruxolitinib + Navitoclax; first compound 0.253 µM) | relative viability (Ruxolitinib + Navitoclax; first compound 0.8 µM) | relative viability (Ruxolitinib + Navitoclax; first compound 2.53 µM) | relative viability (Ruxolitinib + Navitoclax; first compound 8 µM) | relative viability (VE-821 + Navitoclax; first compound 0.08 µM) | relative viability (VE-821 + Navitoclax; first compound 0.253 µM) | relative viability (VE-821 + Navitoclax; first compound 0.8 µM) | relative viability (VE-821 + Navitoclax; first compound 2.53 µM) | relative viability (VE-821 + Navitoclax; first compound 8 µM)
1 | NCI-H2126 | 0.773 | 0.767 | 0.782 | 0.807 | 0.789 | 0.864 | 0.848 | 1.1 | 0.975 | 0.838 | 0.82 | 0.725 | 0.781 | 0.8 | 0.689 | 0.897 | 0.821 | 0.833 | 0.815 | 0.699
2 | NCI-H2170 | 0.891 | 0.857 | 0.753 | 0.821 | 0.737 | 0.804 | 0.689 | 0.768 | 0.77 | 0.6 | 0.6 | 0.575 | 0.618 | 0.593 | 0.48 | 0.598 | 0.561 | 0.512 | 0.554 | 0.323
3 | NCI-H2228 | 0.667 | 0.56 | 0.773 | 0.46 | 0.361 | 0.32 | 0.33 | 0.257 | 0.314 | 0.208 | 0.925 | 0.987 | 1.02 | 0.921 | 0.712 | 0.943 | 1.01 | 0.811 | 0.842 | 0.741
4 | NCI-H2347 | 0.949 | 0.999 | 1.17 | 0.984 | 1.19 | 0.612 | 0.561 | 0.554 | 0.725 | 0.701 | 0.783 | 0.72 | 0.99 | 0.741 | 0.758 | 0.941 | 0.809 | 0.775 | 0.959 | 0.763
5 | NCI-H2405 |  | 0.715 | 0.984 | 0.416 | 0.465 |  | 0.787 | 0.833 | 0.758 | 0.604 |  | 0.771 | 1.28 | 0.456 | 0.471 | 0.873 | 0.888 | 0.762 | 0.942 | 0.751
6 | NCI-H3122 | 0.807 | 0.786 | 0.851 | 0.556 | 0.617 |  | 0.35 | 0.493 | 0.439 | 0.441 | 1.04 | 1.03 | 0.981 | 0.923 | 0.963 | 1.07 | 1.02 | 1.01 | 1.02 | 0.922
7 | PC-3 [JPC-3] | 0.763 | 1.05 | 1.1 | 0.991 | 0.932 | 0.77 | 0.894 | 0.862 | 0.824 | 0.859 | 0.69 | 0.771 | 0.771 | 0.757 | 0.73 | 0.837 | 0.801 | 0.859 | 0.789 | 0.744
8 | PC-14 |  | 0.868 | 0.902 | 0.879 | 0.78 |  | 0.677 | 0.58 | 0.471 | 0.483 |  | 1.03 | 1.01 | 0.927 | 0.723 | 1.09 | 0.955 | 1.06 | 0.962 | 0.923
9 | RERF-LC-KJ | 0.811 | 0.775 | 0.892 | 0.877 | 0.771 | 0.401 | 0.492 | 0.555 | 0.495 | 0.384 | 1.05 | 0.963 | 1.59 | 1.15 | 0.657 | 0.94 | 0.824 | 0.881 | 0.671 | 0.651
10 | SK-LU-1 | 1.18 | 1.05 | 1.11 | 0.823 | 0.623 | 0.363 | 0.328 | 0.412 | 0.372 | 0.338 | 0.79 | 0.634 | 0.0636 | 0.539 | 0.656 | 0.781 | 0.871 | 0.744 | 0.366 | 0.247
11 | SK-MES-1 | 0.984 | 0.878 | 0.986 | 0.722 | 0.795 | 1.01 | 0.873 | 0.906 | 0.768 | 0.735 | 1.3 | 1.12 | 1.26 | 1.18 | 0.9 | 1.3 | 1.23 | 1.24 | 1.21 | 1.26
12 | SW 1573 | 0.926 | 0.712 | 0.984 | 0.558 | 0.687 | 0.209 | 0.182 | 0.167 | 0.183 | 0.16 | 1.06 | 0.925 | 1.02 | 0.918 | 1.04 | 1.12 | 0.992 | 1.03 | 0.796 | 1.1
